# Calls of active or inactive are those of the source. No cut-off for these calls is given here.
# Assays:
# [1] = molecular target: Nuclear receptor subfamily 1 group I member 2 (Homo sapiens, UniProt O75469); assay: Agonist activity at PXR (unknown origin) transfected in african green monkey COS7 cells assessed transactivation incubated at 1 uM for 16 hrs by luciferase assay; assay type: cell-based; conditions: cos7, 16 h
# [2] = molecular target: Retinoic acid receptor RXR-beta (Homo sapiens) (UniProt P28702); assay: Agonist activity at RXRbeta (unknown origin) transfected in african green monkey COS7 cells assessed transactivation incubated at 1 uM for 16 hrs by luciferase assay; assay type: cell-based
# Retinoic acid receptor RXR-beta (Homo sapiens), sequence (P28702 whole entry): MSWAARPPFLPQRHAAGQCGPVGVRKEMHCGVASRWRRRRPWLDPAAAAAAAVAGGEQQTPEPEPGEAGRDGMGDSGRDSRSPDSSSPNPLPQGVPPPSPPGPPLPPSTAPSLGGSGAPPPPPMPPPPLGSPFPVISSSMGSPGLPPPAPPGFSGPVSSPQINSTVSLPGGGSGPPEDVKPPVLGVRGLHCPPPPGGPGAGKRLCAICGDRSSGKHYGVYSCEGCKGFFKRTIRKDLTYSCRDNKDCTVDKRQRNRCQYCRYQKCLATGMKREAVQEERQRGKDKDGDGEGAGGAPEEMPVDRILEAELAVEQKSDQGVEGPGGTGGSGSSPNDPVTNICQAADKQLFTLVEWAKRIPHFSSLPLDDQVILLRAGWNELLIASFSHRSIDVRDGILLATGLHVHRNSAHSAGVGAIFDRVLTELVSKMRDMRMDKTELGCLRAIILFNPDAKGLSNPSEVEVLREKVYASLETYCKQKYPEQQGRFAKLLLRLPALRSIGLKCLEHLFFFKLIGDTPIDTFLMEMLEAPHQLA
# [3] = molecular target: Retinoic acid receptor RXR-gamma (Homo sapiens) (UniProt P48443); assay: Agonist activity at RXRgamma (unknown origin) transfected in african green monkey COS7 cells assessed transactivation incubated at 1 uM for 16 hrs by luciferase assay; assay type: cell-based
# Retinoic acid receptor RXR-gamma (Homo sapiens), sequence (P48443 whole entry): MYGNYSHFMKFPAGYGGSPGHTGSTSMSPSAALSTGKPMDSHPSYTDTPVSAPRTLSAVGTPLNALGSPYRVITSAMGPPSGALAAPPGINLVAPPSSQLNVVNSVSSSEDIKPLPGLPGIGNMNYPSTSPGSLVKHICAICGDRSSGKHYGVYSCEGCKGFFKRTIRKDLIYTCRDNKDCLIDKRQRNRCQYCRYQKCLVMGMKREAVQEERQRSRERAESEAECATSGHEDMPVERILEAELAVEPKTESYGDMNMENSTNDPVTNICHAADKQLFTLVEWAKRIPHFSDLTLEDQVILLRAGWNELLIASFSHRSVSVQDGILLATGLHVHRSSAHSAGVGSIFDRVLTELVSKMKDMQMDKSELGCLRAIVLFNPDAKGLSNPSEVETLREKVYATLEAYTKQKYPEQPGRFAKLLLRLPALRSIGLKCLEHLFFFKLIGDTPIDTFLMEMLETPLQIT
# [4] = molecular target: Nuclear receptor ROR-gamma (Homo sapiens) (UniProt P51449); assay: Agonist activity at RORgamma (unknown origin) transfected in african green monkey COS7 cells assessed transactivation incubated at 1 uM for 16 hrs by luciferase assay; assay type: cell-based
# Nuclear receptor ROR-gamma (Homo sapiens), sequence (P51449 whole entry): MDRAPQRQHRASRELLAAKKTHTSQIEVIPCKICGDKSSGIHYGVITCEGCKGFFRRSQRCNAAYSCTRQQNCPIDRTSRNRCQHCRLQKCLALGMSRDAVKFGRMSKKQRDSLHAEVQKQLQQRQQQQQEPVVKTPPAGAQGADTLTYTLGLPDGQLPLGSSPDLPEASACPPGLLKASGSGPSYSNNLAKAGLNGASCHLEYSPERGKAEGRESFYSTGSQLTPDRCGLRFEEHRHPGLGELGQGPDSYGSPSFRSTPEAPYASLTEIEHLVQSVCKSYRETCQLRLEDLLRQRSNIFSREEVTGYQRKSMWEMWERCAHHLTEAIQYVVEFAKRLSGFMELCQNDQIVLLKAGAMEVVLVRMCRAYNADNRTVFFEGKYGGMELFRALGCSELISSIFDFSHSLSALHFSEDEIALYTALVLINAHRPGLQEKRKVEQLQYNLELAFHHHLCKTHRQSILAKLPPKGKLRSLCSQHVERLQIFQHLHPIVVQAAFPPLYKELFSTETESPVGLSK
# [5] = molecular target: Oxysterols receptor LXR-alpha (Homo sapiens) (UniProt Q13133); assay: Agonist activity at LXRalpha (unknown origin) transfected in african green monkey COS7 cells assessed transactivation incubated at 1 uM for 16 hrs by luciferase assay; assay type: cell-based
# Oxysterols receptor LXR-alpha (Homo sapiens), sequence (Q13133 whole entry): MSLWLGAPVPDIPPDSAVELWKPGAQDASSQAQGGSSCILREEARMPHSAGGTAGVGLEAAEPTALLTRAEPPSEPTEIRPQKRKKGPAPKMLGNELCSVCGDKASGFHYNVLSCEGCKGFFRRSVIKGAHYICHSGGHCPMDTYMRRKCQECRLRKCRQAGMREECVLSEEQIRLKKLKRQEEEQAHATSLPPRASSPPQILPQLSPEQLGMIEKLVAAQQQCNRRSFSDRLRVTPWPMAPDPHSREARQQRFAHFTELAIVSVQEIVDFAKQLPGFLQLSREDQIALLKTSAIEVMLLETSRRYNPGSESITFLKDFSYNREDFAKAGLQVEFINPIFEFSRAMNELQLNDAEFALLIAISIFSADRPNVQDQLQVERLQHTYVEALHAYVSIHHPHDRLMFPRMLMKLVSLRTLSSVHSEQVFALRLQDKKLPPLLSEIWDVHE
# [6] = molecular target: Thyroid hormone receptor beta (Homo sapiens) (UniProt P10828); assay: Agonist activity at THRbeta (unknown origin) transfected in african green monkey COS7 cells assessed transactivation incubated at 1 uM for 16 hrs by luciferase assay; assay type: cell-based
# Thyroid hormone receptor beta (Homo sapiens), sequence (P10828 whole entry): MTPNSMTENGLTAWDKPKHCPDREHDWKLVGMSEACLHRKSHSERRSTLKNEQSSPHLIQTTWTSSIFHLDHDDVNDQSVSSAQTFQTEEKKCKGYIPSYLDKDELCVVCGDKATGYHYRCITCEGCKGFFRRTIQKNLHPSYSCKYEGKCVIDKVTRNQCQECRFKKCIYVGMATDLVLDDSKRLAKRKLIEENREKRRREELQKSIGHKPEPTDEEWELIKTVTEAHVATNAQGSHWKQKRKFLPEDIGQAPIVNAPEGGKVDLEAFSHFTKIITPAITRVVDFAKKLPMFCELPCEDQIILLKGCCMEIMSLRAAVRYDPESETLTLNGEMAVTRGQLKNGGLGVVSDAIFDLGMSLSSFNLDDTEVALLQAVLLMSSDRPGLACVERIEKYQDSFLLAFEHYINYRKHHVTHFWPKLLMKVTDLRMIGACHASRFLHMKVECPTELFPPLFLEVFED
# [7] = Stability in human liver microsome assessed as half life at 1 uM by LC/MS-8050 analysis; assay type: ADME; conditions: liver microsomes
# [8] = Clearance in fasted Sprague-Dawley rat at 10 mg/kg, po measured at 0.083 to 24 hrs by LC-MS/MS analysis; assay type: ADME, organism-based; conditions: in vivo, time 0.083-24 hrs
# [9] = AUC in fasted Sprague-Dawley rat at 10 mg/kg, po measured at 0.083 to 24 hrs by LC-MS/MS analysis; assay type: ADME, organism-based; set-up: time lower 0.083 hrs, dose 10 mg/kg, time upper 24 hrs, route po; conditions: in vivo
# [10] = Mutagenicity in Salmonella typhimurium TA98 measured at 0.21 to 16.67 mg/ml for 72 hrs by mini-Ames test; assay type: toxicity; conditions: salmonella enterica subsp. enterica serovar typhimurium, dose 0.21-16.67 mg/ml
# [11] = system: COS-7; assay: Cytotoxicity against african green monkey COS7 cells incubated upto 100 uM for 24 hrs by CCK8 assay; assay type: toxicity, cell-based; conditions: chlorocebus aethiops, cos-7, 24 h
# [12] = system: HEK293; assay: Cytotoxicity against HEK293 cells incubated upto 100 uM for 24 hrs by CCK8 assay; assay type: toxicity, cell-based; conditions: human, hek293, 24 h
# [13] = system: HepG2; assay: Cytotoxicity against human HepG2 cells incubated upto 100 uM for 24 hrs by CCK8 assay; assay type: toxicity, cell-based; conditions: hepg2, 24 h
# [14] = Acute toxicity in mouse assessed as moribundity administered at 2000 mg/kg, po for 14 days; assay type: organism-based; conditions: in vivo, 336 h, time 14 day
# [15] = In vivo upregulation of PPAR alpha in C57BL/6JNifdc mouse liver administered at 0.03 mg/kg, po for 3 days measured after 6 hrs of last administration by real-time PCR analysis; assay type: ADME, organism-based; conditions: 78 h, time 3.25 day
# [16] = Down-streaming of Cyp27a1 gene expression in C57BL/6JNifdc mouse liver assessed as hepatic resorption of bile acid administered at 0.03 to 0.1 mg/kg, po for 3 days measured after 6 hrs of last administration by real-time PCR analysis; assay type: ADME, organism-based; conditions: in vivo, 78 h, dose 0.03-0.1 mg/kg, time 3.25 day
# [17] = Upregulation of Mrp3 gene expression in C57BL/6JNifdc mouse liver assessed as increased efflux of bile acid administered at 0.03 to 0.1 mg/kg, po for 3 days measured after 6 hrs of last administration by real-time PCR analysis; assay type: ADME, organism-based; conditions: in vivo, 78 h, dose 0.03-0.1 mg/kg, time 3.25 day
# [18] = Upregulation of Mrp4 gene expression in C57BL/6JNifdc mouse liver assessed as increased efflux of bile acid administered at 0.03 to 0.1 mg/kg, po for 3 days measured after 6 hrs of last administration by real-time PCR analysis; assay type: ADME, organism-based; conditions: in vivo, 78 h, dose 0.03-0.1 mg/kg, time 3.25 day
# [19] = Anti-cholestatic activity in ANIT-induced C57BL/6Nifdc mouse model assessed as decrease in serum alanine aminotransferase at 0.03 to 0.1 mg/kg, po upto 42 hrs measured after 48 hrs; assay type: ADME, organism-based; conditions: in vivo, 90 h, dose 0.03-0.1 mg/kg
# [20] = Anti-cholestatic activity in ANIT-induced C57BL/6Nifdc mouse model assessed as decrease in liver alkaline phosphatase at 0.03 to 0.1 mg/kg, po upto 42 hrs measured after 48 hrs; assay type: ADME, organism-based; conditions: in vivo, 90 h, dose 0.03-0.1 mg/kg
# [21] = Anti-cholestatic activity in ANIT-induced C57BL/6Nifdc mouse model assessed as decrease in serum total bilirubin level at 0.03 to 0.1 mg/kg, po upto 42 hrs measured after 48 hrs; assay type: ADME, organism-based; conditions: in vivo, 90 h, dose 0.03-0.1 mg/kg
# [22] = Anti-cholestatic activity in ANIT-induced C57BL/6Nifdc mouse model assessed as decrease in liver TCDCA at 0.03 to 0.1 mg/kg, po upto 42 hrs measured after 48 hrs; assay type: ADME, organism-based; conditions: in vivo, 90 h, dose 0.03-0.1 mg/kg
# [23] = Anti-cholestatic activity in ANIT-induced C57BL/6Nifdc mouse model assessed as decrease in liver beta-MCA at 0.03 to 0.1 mg/kg, po upto 42 hrs measured after 48 hrs; assay type: ADME, organism-based; conditions: in vivo, 90 h, dose 0.03-0.1 mg/kg
# [24] = Anti-cholestatic activity in ANIT-induced C57BL/6Nifdc mouse model assessed as downregulation of proinflammatory Tnf gene at 0.03 to 0.1 mg/kg, po upto 42 hrs measured after 48 hrs; assay type: ADME, organism-based; conditions: in vivo, 90 h, dose 0.03-0.1 mg/kg
# [25] = Anti-cholestatic activity in ANIT-induced C57BL/6Nifdc mouse model assessed as downregulation of proinflammatory Il1b gene at 0.03 to 0.1 mg/kg, po upto 42 hrs measured after 48 hrs; assay type: ADME, organism-based; conditions: in vivo, 90 h, dose 0.03-0.1 mg/kg
# [26] = Anti-cholestatic activity in ANIT-induced C57BL/6Nifdc mouse model assessed as downregulation of proinflammatory Il6 gene at 0.03 to 0.1 mg/kg, po upto 42 hrs measured after 48 hrs; assay type: ADME, organism-based; conditions: in vivo, 90 h, dose 0.03-0.1 mg/kg
# [27] = Anti-cholestatic activity in ANIT-induced C57BL/6Nifdc mouse model assessed as downregulation of proinflammatory Ccl4 gene at 0.03 to 0.1 mg/kg, po upto 42 hrs measured after 48 hrs; assay type: ADME, organism-based; conditions: in vivo, 90 h, dose 0.03-0.1 mg/kg
# [28] = Anti-cholestatic activity in ANIT-induced C57BL/6Nifdc mouse model assessed as downregulation of proinflammatory Nos2 gene at 0.03 to 0.1 mg/kg, po upto 42 hrs measured after 48 hrs; assay type: ADME, organism-based; conditions: in vivo, 90 h, dose 0.03-0.1 mg/kg
# [29] = Anti-cholestatic activity in ANIT-induced C57BL/6Nifdc mouse model assessed as downregulation of NF-kappaB signalling pathway at 0.03 to 0.1 mg/kg, po upto 42 hrs measured after 48 hrs; assay type: ADME, organism-based; conditions: in vivo, 90 h, dose 0.03-0.1 mg/kg
# [30] = Anti-cholestatic activity in ANIT-induced C57BL/6Nifdc mouse model assessed as decrease in phosphorylated p65 level at 0.03 to 0.1 mg/kg, po upto 42 hrs measured after 48 hrs by Western blot analysis; assay type: ADME, organism-based; conditions: in vivo, 90 h, dose 0.03-0.1 mg/kg
# [31] = Anti-cholestatic activity in ANIT-induced C57BL/6Nifdc mouse model assessed as decrease in liver DHCA at 0.03 to 0.1 mg/kg, po upto 42 hrs measured after 48 hrs; assay type: ADME, organism-based; conditions: in vivo, 90 h, dose 0.03-0.1 mg/kg
# [32] = Anti-cholestatic activity in ANIT-induced C57BL/6Nifdc mouse model assessed as decrease in liver 3-DHCA at 0.03 to 0.1 mg/kg, po upto 42 hrs measured after 48 hrs; assay type: ADME, organism-based; conditions: in vivo, 90 h, dose 0.03-0.1 mg/kg
# Nuclear receptor subfamily 1 group I member 2, sequence (O75469 whole entry): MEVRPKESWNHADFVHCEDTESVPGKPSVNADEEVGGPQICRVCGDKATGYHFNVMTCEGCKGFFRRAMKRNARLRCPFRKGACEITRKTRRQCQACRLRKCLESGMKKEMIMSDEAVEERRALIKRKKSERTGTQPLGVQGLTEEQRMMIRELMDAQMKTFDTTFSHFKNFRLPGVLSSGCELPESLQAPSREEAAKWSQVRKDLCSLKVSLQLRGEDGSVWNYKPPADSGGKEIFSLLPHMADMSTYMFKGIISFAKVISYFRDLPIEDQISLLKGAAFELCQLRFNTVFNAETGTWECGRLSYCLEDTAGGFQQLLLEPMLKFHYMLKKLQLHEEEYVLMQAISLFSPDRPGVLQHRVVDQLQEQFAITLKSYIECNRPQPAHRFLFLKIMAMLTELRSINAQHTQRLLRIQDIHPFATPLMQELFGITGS
smiles,measurement,setting,value
Cc1cc(CN2C(=O)CN(c3ccc(C(F)(F)F)cc3)C2=O)cc(C)c1OC(C)(C)C(=O)O,Activity,[1],Not Active
same,Activity,[2],inactive
same,Activity,[3],inactive
same,Activity,[4],inactive
same,Activity,[5],inactive
same,Activity,[6],inactive
same,half-life at 1 µM,[7],> 2 h
same,CL,[8],7.6 mL/min/kg
same,AUC,[9],22300 ng·h/mL
same,Activity,[10],Non-Toxic
same,Activity,[11],Non-Toxic
same,Activity,[12],Non-Toxic
same,Activity,[13],Non-Toxic
same,Activity,[14],Non-Toxic
same,Activity,[15],Active
same,Activity,[16],Active
same,Activity,[17],Active
same,Activity,[18],Active
same,Activity,[19],Active
same,Activity,[20],Active
same,Activity,[21],Active
same,Activity,[22],Active
same,Activity,[23],Active
same,Activity,[24],Active
same,Activity,[25],Active
same,Activity,[26],Active
same,Activity,[27],Active
same,Activity,[28],Active
same,Activity,[29],Active
same,Activity,[30],Active
same,Activity,[31],Active
same,Activity,[32],Active

# From ChEMBL document CHEMBL5338805, “Discovery of the First Subnanomolar PPARα/δ Dual Agonist for the Treatment of Cholestatic Liver Diseases” (J Med Chem, 2023)
